Data: patent US9944668B2, “Manganese-based magnetic resonance contrast agents” (The General Hospital Corporation, priority 2013, dated 2018)

Legend:
Assay type in all cases: physicochemical
[1] = T1 relaxivity (r1) measurement at 1.4 T, 37° C., TRIS buffer pH 7.4; details: for r1 (relaxivity): pH 7.4, 37° C., 1.4 Tesla, TRIS buffer
Protocol: (§1) Liquid chromatography-electrospray mass spectrometry (LC-MS) was performed using an Agilent 1100 Series apparatus with an LC/MSD trap and Daly conversion dynode detector with UV detection at 220, 254 and 280 nm. The methods used on this system are as follows: (a) Luna C18 column (100×2 mm); eluent A: H2O/0.1% formic acid, B: MeCN/0.1% formic acid; gradient: 5% B to 95% B over 9 minutes; flow rate 0.8 mL/min (used for characterization of organic compounds), and (b) Kromasil C18 column (250×4.6 mm); eluent C: 95% MeCN/5% 10 mM ammonium acetate, D: 10 mM ammonium acetate; gradient 5% C to 8% C over 14 minutes; flow rate 0.8 ml/min (used for characterization of manganese complexes). Reversed-phase semipreparative purification was performed on a Rainin Dynamax HPLC system with UV detection at 254 nm using a Polaris C18 column. The method used for purification is as follows: The mobile phase A was 50 mM ammonium acetate buffer, pH 6.5 and mobile phase B was a mixture of 5% 50 mM ammonium acetate buffer, pH 6.5/95% MeCN. Starting from 5% B, the fraction of B increased to 8% over 23 minutes. The column was washed with 100% B for 2 minutes and then ramped to 5% B. The system was re-equilibrated at 5% B for 3 minutes. Relaxivity measurements were performed on a Bruker mq60 Minispec at 1.4 T and 37° C. Manganese concentrations were determined using an Agilent 7500a ICP-MS system. All samples were diluted with 0.1% Triton X-100 in 5% nitric acid containing 20 ppb of Lu (as internal standard). The ratio of Mn (54.94)/Lu(174.97) was used to quantify the manganese concentration. A linear calibration curve ranging from 0.1 ppb to 200 ppb was generated daily for the quantification. UV-Vis spectra were recorded on a SpectraMax M2 spectrophotometer using quartz cuvette with a 1 cm path length. Cyclic voltammetry of Mn^IIHBET, Mn^IIEDTA and Mn^IIIHBET was recorded using a Nuvant EZstat pro potentiostat in TRIS buffer (pH=7.4), containing 0.5M KNO3 as supporting electrolyte, at 100 mVs-1 scan rate. Glassy carbon was used as the working electrode, Ag/AgCl served as the reference electrode and Pt wire was used as the auxiliary electrode. The K4FeCN6/K3FeCN6 couple was used as the internal standard.
T1 was measured with an inversion recovery pulse sequence taking 10 inversion times. Relaxivity was determined from the slope of a plot of 1/T1 vs. concentration of in TRIS buffer, pH=7.4 at 37° C. The concentration of manganese in each stock solution was determined using ICP-MS.

[2] = Cyclic voltammetry of manganese complexes (Mn(III)/Mn(II) redox couple); details: for Half-cell potential: pH 7.4, vs. normal hydrogen electrode (NHE)
Protocol: as §1

[3] = T1 relaxivity measurement by MR imaging at 4.7 T; details: room temperature, pH 7.4 TRIS buffer
Protocol: MR imaging was performed using a Bruker Biospec 4.7 T system. Three samples (˜500 μL) were placed in a homemade sample holder and imaged using a volume coil. Acquisition matrix=64×256 for 0.234×0.312 mm^2 in-plane resolution; slice thickness=5 mm. T1-weighted images were obtained with a fast low angle shot (FLASH) gradient echo sequence: TR/TE/FA=20/5.44/40° with 8 averages. T1 was determined using a 2D rapid acquisition refocused echo (RARE) inversion recovery sequence: TR=3200 ms, TE=9.7 ms. Inversion times (TI): 5, 45, 85, 165, 325, 645, 1285, 1925 and 3205 ms. T1 was obtained from a nonlinear least square fit of the signal intensity (SI(t)) vs. TI curve where T1, SI(0) and a are adjustable parameters, equation S2. SI(t)=SI(0)[1−α,e^TI/T1] (eq. S2)

[4] = Kinetics of reduction of Mn^III-HBET by glutathione; details: 37° C., pH 7.4; first-order in both [GSH] and [Mn^III-HBET]
Protocol: This series of kinetic experiments were conducted at 37° C. (pH 7.4) to determine the empirical rate law for the reduction of Mn^III-HBET by glutathione. […] This feature was used to monitor the reduction of […] over time. Initial reaction rates were measured at a three different glutathione concentrations (5 mM, 10 mM and 20 mM). Additionally, for each glutathione concentration, the reaction was performed at four different initial concentrations of Mn^III-HBET (0.3 mM, 0.4 mM, 0.5 mM and 0.6 mM). By using a large excess of glutathione in these experiments, we found the reaction behaved pseudo first-order with respect to the […] complex as expressed in equation S1. [Mn^IIIHBET]t=[Mn^IIIHBET]o·e^−k^obs^·t (eq. S1)
Here, the observed rate constant (kobs) is simply the product of the actual rate constant (k) and [GSH], t is time, and the subscripts ‘t’ and ‘o’ refer to the concentration at time ‘t’ or the initial concentration, respectively. […] In this way, the slope of each line is equal to −k·[GSH] and the intercept is In[MnIII-HBET]o. Based on these experiments, we determined that the reaction was first-order in both [GSH] and [Mn^III-HBET] with an overall second-order rate constant of (3.8±0.3)×10^−1M^−1s^−1.

[5] = Relaxivity (r1) at different field strengths in HEPES buffer; details: 37° C., pH 7.4 HEPES buffer
Protocol: The relaxivities of the compounds for Formulas (XI) and (XII) were determined at different field strengths at 37° C. in pH 7.4 HEPES buffer. The relaxivity was obtained from the slope of a plot of 1/T1 vs. [Mn] for different Mn concentrations. Since Formula (XI) contains 6 Mn per molecule, the ionic (per Mn) and molecular (per molecule) relaxivities are given below.

O=C([O-])CN(CC(=O)[O-])C1CCCCC1N(CC(=O)[O-])Cc1ccccc1[O-].[Mn+2].[Na+].[Na+] (racemic) [Compound 20, Na2[Mn^IIcycHBET]]
r1 (relaxivity) [1]: 3.26 mM⁻¹ s⁻¹

O=C([O-])CN(CCN(CC(=O)[O-])Cc1ccccc1[O-])CC(=O)[O-].[Mn+2].[Na+].[Na+] [Compound 4, Na2[Mn^IIHBET]]
r1 (relaxivity) [1]: 2.76 mM⁻¹ s⁻¹ | Half-cell potential [2]: 379 mV

O=C([O-])CN(CCN(CC(=O)[O-])Cc1ccccc1[O-])CC(=O)[O-].[Mn+3].[Na+] [Compound 5, Na[Mn^IIIHBET]]
r1 (relaxivity) [1]: 1.05 mM⁻¹ s⁻¹ | fold higher relaxivity of reduced form vs oxidized form [3]: 3.3 fold | overall second-order rate constant of reduction by glutathione [4]: (3.8±0.3)×10^−1 M^−1s^−1

COc1ccc([O-])c(CN(CCN(CC(=O)[O-])CC(=O)[O-])CC(=O)[O-])c1.[Mn+2].[Na+].[Na+] [Compound 9, Na2[Mn^IIHBET-OMe]]
r1 (relaxivity) [1]: 3.11 mM⁻¹ s⁻¹ | Half-cell potential [2]: 344 mV

O=C([O-])CN(CCN(CC(=O)[O-])Cc1cc([N+](=O)[O-])ccc1[O-])CC(=O)[O-].[Mn+2].[Na+].[Na+] [Compound 13, Na2[Mn^IIHBET-NO2]]
r1 (relaxivity) [1]: 2.28 mM⁻¹ s⁻¹

O=C([O-])CN(CCN(CC(=O)[O-])Cc1cc([N+](=O)[O-])ccc1[O-])CC(=O)[O-].[Mn+3].[Na+] [Compound 14, Na[Mn^IIIHBET-NO2]]
r1 (relaxivity) [1]: 0.34 mM⁻¹ s⁻¹ | Half-cell potential [2]: 476 mV

O=C([O-])CN(CC(=O)[O-])C1CCCCC1N(CC(=O)[O-])Cc1ccccc1[O-].[Mn+3].[Na+] (stereo not shown) [Compound 21, Na[Mn^IIIcycHBET]]
r1 (relaxivity) [1]: 1.56 mM⁻¹ s⁻¹ | Half-cell potential [2]: 365 mV

O=C([O-])CN(CC(=O)[O-])C1CCCCC1N(CC(=O)[O-])Cc1cc([N+](=O)[O-])ccc1[O-].[Mn+2].[Na+].[Na+] (stereo not shown) [Compound 30, Na2[Mn^IIcycHBET-NO2)]]
r1 (relaxivity) [1]: 2.30 mM⁻¹ s⁻¹

O=C([O-])CN(CC(=O)[O-])C1CCCCC1N(CC(=O)[O-])Cc1cc([N+](=O)[O-])ccc1[O-].[Mn+3].[Na+] (stereo not shown) [Compound 31, Na[Mn^IIIcycHBET-NO2]]
Half-cell potential [2]: 488 mV

O=C([O-])CN(CCN(CC(=O)[O-])Cc1ccccc1[O-])Cc1ccccc1[O-].[Mn+3] [Mn^III-HBED, reference compound]
half-cell potential (Mn^II/Mn^III) ([2]; TRIS buffer pH 7.4, vs. K4Fe(CN)6/K3Fe(CN)6): 0.016 V

Mn6[N3P3-(TyOH-EDTA)6] [(XI)]
Relaxivity r1 (per Mn) ([5]; 0.47T): 9.07 mM⁻¹ s⁻¹ | Relaxivity r1 per molecule ([5]; 0.47T): 54.4 mM⁻¹ s⁻¹ | Relaxivity r1 (per Mn) ([5]; 1.4T): 9.28 mM⁻¹ s⁻¹ | Relaxivity r1 per molecule ([5]; 1.4T): 55.7 mM⁻¹ s⁻¹ | Relaxivity r1 (per Mn) ([5]; 4.7T): 6.54 mM⁻¹ s⁻¹ | Relaxivity r1 per molecule ([5]; 4.7T): 39.2 mM⁻¹ s⁻¹ | Relaxivity r1 (per Mn) ([5]; 9.4T): 4.94 mM⁻¹ s⁻¹ | Relaxivity r1 per molecule ([5]; 9.4T): 29.6 mM⁻¹ s⁻¹ | Relaxivity r1 (per Mn) ([5]; 11.7T): 3.57 mM⁻¹ s⁻¹ | Relaxivity r1 per molecule ([5]; 11.7T): 21.4 mM⁻¹ s⁻¹

Na[Mn(TyOH-EDTA)] [(XII)]
Relaxivity r1 (per Mn) ([5]; 0.47T): 3.60 mM⁻¹ s⁻¹ | Relaxivity r1 (per Mn) ([5]; 1.4T): 2.80 mM⁻¹ s⁻¹ | Relaxivity r1 (per Mn) ([5]; 9.4T): 3.65 mM⁻¹ s⁻¹ | Relaxivity r1 (per Mn) ([5]; 11.7T): 3.05 mM⁻¹ s⁻¹

[Mn(CyP3A)] [(IX)]
Relaxivity r1 ([1]; 1.41T, 37° C., pH 7.4 Tris buffer): 2.50 mM⁻¹ s⁻¹
